# Entries after “also recorded” stand apart in the source; their conditions may differ.
# What was measured:
# [1] = tested on: purified protein samples (mAbs 1-3); experiment: Substrate specificity, purified protein samples; format: biochemical, CHO and E. coli; conditions: 0.5 mM substrate; mAbs 1-3 neat, 150-225 mg/ml
# Description: (§1) The esterase activity assay monitors the conversion of the non-fluorescent substrates, 4-methylumbelliferyl fatty acid esters, to a fluorescent product, MU, through the cleavage of the ester bond. […] The concentration of each buffer component was selected based on in-house assay development studies (data not shown). A 50 mM tris chloride running buffer at pH 8.0 with 0.01% gum arabic was previously used to determine activity rates in a lipase and esterase activity assay (Nalder TD, et al., Biochimie. 2016;128-129:127-132).
# [2] = tested on: PCL, LPLA2, PLBL2; experiment: Substrate specificity, model enzymes; format: biochemical; conditions: 0.5 mM substrate; PCL and LPLA2 20 ng/ml, PLBL2 400 µg/ml
# Description: as §1
# [3] = target: T1, carboxylesterase 1 (CES1) (Homo sapiens, UniProt P23141); conditions: cited from earlier work
# T1 sequence (P23141 18-567): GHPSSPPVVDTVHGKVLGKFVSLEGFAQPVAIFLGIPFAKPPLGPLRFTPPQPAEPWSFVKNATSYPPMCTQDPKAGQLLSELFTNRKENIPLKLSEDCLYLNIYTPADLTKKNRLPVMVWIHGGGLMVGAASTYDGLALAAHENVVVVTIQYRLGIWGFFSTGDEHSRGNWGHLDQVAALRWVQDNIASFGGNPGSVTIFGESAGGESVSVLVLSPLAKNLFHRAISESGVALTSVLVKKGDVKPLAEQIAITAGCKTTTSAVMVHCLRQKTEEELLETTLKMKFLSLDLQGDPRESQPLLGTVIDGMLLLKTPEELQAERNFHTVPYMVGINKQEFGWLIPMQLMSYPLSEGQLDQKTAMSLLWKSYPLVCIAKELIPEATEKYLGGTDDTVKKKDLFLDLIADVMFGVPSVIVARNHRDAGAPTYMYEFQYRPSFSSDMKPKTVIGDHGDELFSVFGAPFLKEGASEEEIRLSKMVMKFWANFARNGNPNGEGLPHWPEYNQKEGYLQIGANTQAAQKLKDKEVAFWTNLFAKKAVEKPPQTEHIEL
# [4] = target: T2, Pseudomonas cepacia lipase (PCL) (Burkholderia cepacia, UniProt P22088); experiment: Orlistat inhibition, esterase activity assay with MU-C8; format: biochemical; conditions: orlistat 0.5, 1 and 10 µM; PCL 50 ng/ml; MU-C8 substrate
# T2 construct: purchased Sigma Aldrich
# Description: (§2) The esterase activity assay monitors the conversion of the non-fluorescent substrates, 4-methylumbelliferyl fatty acid esters, to a fluorescent product, MU, through the cleavage of the ester bond. The reaction mixture contained 80 µl of reaction buffer (150 mM tris chloride pH 8.0, 0.25% (w/v) Triton X-100 and 0.125% (w/v) gum arabic), 10 µl substrate at 1 mM final concentration, and 10 µl model enzyme solution or protein samples. The concentration of each buffer component was selected based on in-house assay development studies (data not shown). […]
# (§3) Model enzymes were diluted in water to the desired concentrations. […] The reaction was set up in 96-well plates and the increase of fluorescence signal (using excitation and emission wavelengths of 355 nm and 460 nm, respectively) was monitored every 10 minutes by incubating the reaction plates for two hours at 37° C. in a plate reader. Rate of production of MU, representing the total hydrolytic activity (from enzymatic and non-enzymatic hydrolysis), was derived from the slope of the fluorescence time course from 30 minutes to 120 minutes, and is denoted by the reaction raw rate (kraw). […]
# (§4) Orlistat stock solution in DMSO was freshly prepared for each inhibition reaction. […] Rates were adjusted for background fluorescence as measured by the enzyme blank (negative control) wells. […]
# [5] = tested on: lysosomal phospholipase A2 (LPLA2); experiment: as above; format: biochemical; conditions: orlistat 0.5, 1 and 10 µM; LPLA2 50 ng/ml; MU-C8 substrate
# Description: as §2, §3, §4
# [6] = tested on: residual HCPs in purified mAb 1 sample; experiment: as above; format: biochemical, CHO (Chinese Hamster Ovary); conditions: orlistat 0.5, 1 and 10 µM vs DMSO control; mAb 1 25 mg/ml during incubation; MU-C8 substrate
# Description: as §2, §3, §4
# [7] = target: T3, carboxylesterase 2 (Homo sapiens, UniProt O00748); conditions: cited from earlier work
# T3 sequence (O00748 27-559): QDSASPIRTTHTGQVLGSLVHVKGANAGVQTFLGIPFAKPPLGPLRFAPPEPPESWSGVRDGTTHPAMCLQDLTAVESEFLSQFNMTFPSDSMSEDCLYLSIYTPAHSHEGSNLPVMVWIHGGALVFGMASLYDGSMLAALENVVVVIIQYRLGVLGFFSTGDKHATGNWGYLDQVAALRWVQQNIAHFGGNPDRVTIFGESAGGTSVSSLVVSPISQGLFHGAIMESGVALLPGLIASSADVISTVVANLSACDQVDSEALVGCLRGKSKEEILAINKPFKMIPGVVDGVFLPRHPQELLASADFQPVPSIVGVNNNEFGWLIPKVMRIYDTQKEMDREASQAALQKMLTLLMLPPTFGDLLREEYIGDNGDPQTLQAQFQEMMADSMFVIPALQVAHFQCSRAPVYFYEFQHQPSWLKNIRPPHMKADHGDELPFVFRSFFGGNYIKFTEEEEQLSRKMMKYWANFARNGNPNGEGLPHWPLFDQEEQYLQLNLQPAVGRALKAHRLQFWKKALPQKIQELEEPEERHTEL
# [8] = tested on: residual hydrolytic HCPs in affinity chromatography purified mAb 6 sample (PS20 degradation); experiment: Orlistat incubation, PS20 degradation by FFA (lauric acid) release in mAb 6 sample; format: biochemical, CHO (Chinese Hamster Ovary); conditions: mAb6 sample, PS20 0.04%, 25° C. 12 days, relative to samples without orlistat
# Description: (§5) To investigate the effect of orlistat on PS20 degradation, affinity chromatography purified samples of mAb 2 (28 mg/mL), mAb 6 (22 mg/ml) and mAb 7 (22 mg/ml) were incubated for 5 hours at room temperature in the presence of DMSO (10% v/v) with orlistat (0.2 µM and 20 µM) or without orlistat. The samples were then spiked with PS20 (0.04% v/v) and methionine (20 mg/ml) and incubated at 25° C. for 12 days. After incubation, the samples were analyzed for PS20 hydrolytic degradation by quantifying the FFA degradant (lauric acid) as previously described in detail (Cheng Y, et al., J Pharm Sci. 2019;108(9):2880-2886).
# [9] = tested on: residual hydrolytic HCPs in affinity chromatography purified mAb 7 sample (PS20 degradation); experiment: Orlistat incubation, PS20 degradation by FFA (lauric acid) release in mAb 7 sample; format: biochemical, CHO (Chinese Hamster Ovary); conditions: mAb7 sample, PS20 0.04%, 25° C. 12 days, relative to samples without orlistat
# Description: as §5
# [10] = tested on: residual hydrolytic HCPs in affinity chromatography purified mAb 2 sample (PS20 degradation); experiment: Orlistat incubation, PS20 degradation by FFA (lauric acid) release in mAb 2 sample; format: biochemical, CHO (Chinese Hamster Ovary); conditions: mAb2 sample, PS20 0.04%, 25° C. 12 days, relative to samples without orlistat
# Description: as §5
# T2 sequence (P22088 45-364): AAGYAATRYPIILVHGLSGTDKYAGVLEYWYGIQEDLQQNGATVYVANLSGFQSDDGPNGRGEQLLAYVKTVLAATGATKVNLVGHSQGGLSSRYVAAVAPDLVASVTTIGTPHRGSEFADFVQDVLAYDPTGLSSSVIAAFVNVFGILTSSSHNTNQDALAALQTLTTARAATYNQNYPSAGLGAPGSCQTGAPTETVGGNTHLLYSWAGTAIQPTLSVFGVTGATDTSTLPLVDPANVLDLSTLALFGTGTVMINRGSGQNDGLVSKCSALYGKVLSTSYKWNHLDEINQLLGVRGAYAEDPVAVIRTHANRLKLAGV
structure (smiles),measurement,setting,value
"CCCCCCCC(=O)Oc1ccc2c(C)cc(=O)oc2c1 [MU-C8, 4-methylumbelliferyl caprylate]",activity of purified protein samples towards MU ester substrate,[1],most sensitivity
same,hydrolysis of MU ester by model enzymes,[2],hydrolyzed
"CCCCCCCCCC(=O)Oc1ccc2c(C)cc(=O)oc2c1 [MU-C10, 4-methylumbelliferyl decanoate]",hydrolysis of MU ester by model enzymes,[2],hydrolyzed
"CCCCCCCC/C=C\CCCCCCCC(=O)Oc1ccc2c(C)cc(=O)oc2c1 [MU-C18:1, 4-methylumbelliferyl oleate]",activity of purified protein samples towards MU ester substrate,[1],did not show activity
"CCCCCCCCCCC[C@@H](C[C@@H]1OC(=O)[C@H]1CCCCCC)OC(=O)[C@H](CC(C)C)NC=O [orlistat, (S)-2-formylamino-4-methyl-pentanoic acid (S)-1-[[(2S,3S)-3-hexyl-4-oxo-2-oxetanyl]methyl]-dodecyl ester]",inhibition of carboxylesterase 1,[3],lack of orlistat potency
same,inhibition of esterase activity,[4],complete inhibition
same,inhibition of esterase activity,[5],complete inhibition
same,reduction in esterase activity rate,[6],dose-dependent reduction; also recorded: did not completely inhibit
same,inhibition of carboxylesterase 2,[7],significantly inhibited
same,Decrease in FFA Release Rate (%),[8]; orlistat 0.2 µM,67%
same,Decrease in FFA Release Rate (%),[8]; orlistat 20 µM,91%
same,Decrease in FFA Release Rate (%),[9]; orlistat 0.2 µM,39%
same,Decrease in FFA Release Rate (%),[9]; orlistat 20 µM,74%
same,Decrease in FFA Release Rate (%),[10]; orlistat 0.2 µM,31%
same,Decrease in FFA Release Rate (%),[10]; orlistat 20 µM,63%

# — patent US20230348953A1, “HIGH THROUGHPUT, FLUORESCENCE-BASED ESTERASE ACTIVITY ASSAY FOR ASSESSING POLYSORBATE DEGRADATION RISK DURING BIOPHARMACEUTICAL DEVELOPMENT” (GENENTECH, INC., priority 2020, published 2023)
